Source: EPA's ToxRefDB 2

Experiments:
rat [1] = conditions: Combined chronic toxicity/carcinogenicity, sprague dawley, Oral, Feed, dose end: 104 week
rat [2] = conditions: Multigenerational reproductive toxicity study, other, Oral, Feed, dose end: 2 generation
mouse [3] = conditions: Carcinogenicity, cd1, Oral, Feed, dose end: 105 week, group: systemic
rat [4] = conditions: Multigenerational reproductive toxicity study, other, Oral, Feed, dose end: 2 generation; remark: listed apart in the source
rat [5] = conditions: Combined chronic toxicity/carcinogenicity, fischer, Oral, Feed, dose end: 104 week, group: systemic
rat [6] = conditions: Subchronic oral toxicity in rodents, fischer, Feed, dose end: 90 day, group: systemic, systemic / pathology microscopic / stomach / hyperplasia
rabbit = conditions: Prenatal developmental toxicity study; new zealand white; Oral; Gavage/Intubation; dose end: 19 GD; group: maternal; reproductive / reproductive performance / aborted / aborted + systemic / in life observation / body weight / body weight gain + systemic / …
mouse [7] = conditions: Carcinogenicity; b6c3f1; Oral; Feed; dose end: 104 week; group: systemic; systemic / in life observation / body weight / body weight gain + systemic / in life observation / food consumption / food consumption + …
dog [8] = conditions: Subchronic oral toxicity in nonrodent, beagle, Capsule, dose end: 13 week, group: systemic
dog [9] = conditions: Chronic toxicity; beagle; Oral; Capsule; dose end: 52 week; group: systemic; systemic / pathology microscopic / kidney / dilatation + systemic / pathology microscopic / kidney / fibrosis + systemic / urinalysis / …
[10] = group: cholinesterase, cholinesterase / cholinesterase / cholinesterase / erythrocyte cholinesterase (che) + cholinesterase / cholinesterase / cholinesterase / …
[11] = group: cholinesterase, cholinesterase / cholinesterase / cholinesterase / plasma cholinesterase (che)
[12] = group: systemic, systemic / clinical chemistry / urea nitrogen / urea nitrogen
[13] = group: systemic, systemic / clinical chemistry / urea nitrogen / urea nitrogen + systemic / organ weight / brain / relative to body weight + systemic / organ…
[14] = group: cholinesterase, cholinesterase / cholinesterase / cholinesterase / cholinesterase (che)
[15] = group: offspring, systemic / in life observation / body weight / offspring (pup) weight
[16] = group: offspring, systemic / in life observation / body weight / offspring (pup) weight + developmental / offspring survival late / lactation index / …
[17] = group: parental, systemic / in life observation / body weight / body weight gain
[18] = group: reproductive, reproductive / offspring survival early / litter size / litter size
[19] = systemic / in life observation / body weight / body weight gain
[20] = group: parental, systemic / pathology gross / stomach / thickened + systemic / pathology microscopic / stomach / acanthosis + systemic / pathology …
[21] = systemic / clinical chemistry / potassium / potassium + systemic / in life observation / clinical signs / abnormal feces + systemic / …

Question: What does the source list for `COP(=O)(OC)SCn1c(=O)oc2cc(Cl)cnc21` [Azamethiphos]?
Answer: LOAEL (rat [1]; [10]): 8.1 mg/kg/day; NOAEL (rat [1]; [10]): 0.8 mg/kg/day; LEL (rat [1]; [11]): 1.1 mg/kg/day; NEL (rat [1]; [11]): < 1.1 mg/kg/day; LEL (rat [1]; [12]): 0.8 mg/kg/day; NEL (rat [1]; [12]): < 0.8 mg/kg/day; LOAEL (rat [1]; [13]): > 62.6 mg/kg/day; NOAEL (rat [1]; [13]): ≥ 62.6 mg/kg/day; LEL (rat [2]; [14]): 10 mg/kg/day; LOAEL (rat [2]; [14]): 10 mg/kg/day; NEL (rat [2]; [14]): 2 mg/kg/day; NOAEL (rat [2]; [14]): 2 mg/kg/day; LOAEL (rat [2]; [15]): 50 mg/kg/day; LEL (rat [2]; [16]): 50 mg/kg/day; NEL (rat [2]; [16]): 10 mg/kg/day; NOAEL (rat [2]; [16]): 10 mg/kg/day; LEL (rat [2]; [17]): 10 mg/kg/day; LOAEL (rat [2]; [17]): 10 mg/kg/day; NEL (rat [2]; [17]): 2 mg/kg/day; NOAEL (rat [2]; [17]): 2 mg/kg/day; LEL (rat [2]; [18]): 50 mg/kg/day; LOAEL (rat [2]; [18]): 50 mg/kg/day; NEL (rat [2]; [18]): 10 mg/kg/day; NOAEL (rat [2]; [18]): 10 mg/kg/day; LEL (mouse [3]; [19]): 6.2 mg/kg/day; NEL (mouse [3]; [19]): < 6.2 mg/kg/day; LOAEL (mouse [3]; systemic / pathology microscopic / intestine small / hyperplasia): 60.2 mg/kg/day; NOAEL (mouse [3]; systemic / pathology microscopic / intestine small / hyperplasia + systemic / hematology / hematocrit (hct) / hematocrit (hct) + systemic / …): 6.2 mg/kg/day

Question: What does the source list for `CCC([O-])=C1C(=O)CC(C(=O)[O-])CC1=O.[Ca+2]` (stereo not given) [Prohexadione-calcium]?
Answer: LEL (rat [4]; [15]): 385 mg/kg/day; LOAEL (rat [4]; [15]): 3850 mg/kg/day; NEL (rat [4]; [15]): 35.5 mg/kg/day; NOAEL (rat [4]; [15]): 385 mg/kg/day; LOAEL (rat [4]; group: parental, systemic / in life observation / mortality / mortality): 385 mg/kg/day; NOAEL (rat [4]; group: parental, systemic / in life observation / mortality / mortality + systemic / in life observation / body weight / body weight + systemic / pathology …): 35.5 mg/kg/day; LEL (rat [4]; [20]): 35.5 mg/kg/day; NEL (rat [4]; [20]): < 35.5 mg/kg/day; LOAEL (rat [5]; systemic / hematology / leukocyte (wbc) count differential / leukocyte (wbc)): 469 mg/kg/day; NOAEL (rat [5]; systemic / hematology / leukocyte (wbc) count differential / leukocyte (wbc) + systemic / in life observation / body weight / body weight + …): 93.9 mg/kg/day; LEL (rat [5]; systemic / pathology microscopic / thyroid gland / dilatation): 114 mg/kg/day; NEL (rat [5]; systemic / pathology microscopic / thyroid gland / dilatation + systemic / in life observation / body weight / body weight + systemic / in …): 22.3 mg/kg/day; LEL (rat [6]): 734 mg/kg/day; LOAEL (rat [6]): 734 mg/kg/day; NEL (rat [6]): 73.1 mg/kg/day; NOAEL (rat [6]): 73.1 mg/kg/day; LEL (rabbit): 200 mg/kg/day; LOAEL (rabbit): 200 mg/kg/day; NEL (rabbit): 40 mg/kg/day; NOAEL (rabbit): 40 mg/kg/day; LEL (mouse [7]): 2850 mg/kg/day; LOAEL (mouse [7]): 2850 mg/kg/day; NEL (mouse [7]): 279 mg/kg/day; NOAEL (mouse [7]): 279 mg/kg/day; NEL (dog [8]; [21]): 80 mg/kg/day; NOAEL (dog [8]; [21]): 80 mg/kg/day; LOAEL (dog [8]; systemic / clinical chemistry / potassium / potassium + systemic / pathology microscopic / kidney / dilatation): 400 mg/kg/day; LEL (dog [8]; systemic / clinical chemistry / potassium / potassium + systemic / pathology microscopic / kidney / dilatation + systemic / in life …): 400 mg/kg/day; LEL (dog [9]): 200 mg/kg/day; LOAEL (dog [9]): 200 mg/kg/day; NEL (dog [9]): 20 mg/kg/day; NOAEL (dog [9]): 20 mg/kg/day
